Data from US20240102022A1, “MODULATING BONE MORPHOGENIC PROTEIN (BMP) SIGNALING IN THE TREATMENT OF ALZHEIMER'S DISEASE” (CZ Biohub SF, LLC, priority 2020, published 2024).

How the values were obtained:
[1] = system: phospho-SMAD 1/5/8 in human fetal neurospheres expressing mutant APP; assay: phospho-SMAD 1/5/8 immunofluorescence staining in neurospheres treated with BMP receptor inhibitor; format: cell-based; settings: neurospheres treated for 1 week, different doses; FIGS. 5B and C
Description: (§1) A human fetal neural stem cell line from University of California Irvine was developed from fetal neural tissue at 18 week gestational age enriched for CD133+ cells. The use of neural progenitor cells as non-hESC stem cells in this study is compliant to Stanford Stem Cell Research Oversight (SCRO) Protocol 194 pre-approved by the Internal Review Board (IRB)/SCRO of the Stanford Research Compliance Office (RCO). Informed consent was obtained, and standard material transfer agreement signed. Cells were grown in nonadherent ultra-low attachment well plates in X-VIVO 15 media (LONZA) supplemented with LIF (10 ng/ml), N2 Supplement, N-acetylcysteine (63 ug/ml), Heparin (2 ug/ml), EGF (20 ng/ml), and FGF (20 ng/ml).
(§2) cDNA for mutant APP harboring the Swedish and Indiana mutations was cloned into a pHIV-Zsgreen backbone obtained from Addgene. Lipofectamine 2000 was used to transduce the construct (either pHIV-Zsgreen+mutant APP or pHIV-Zsgreen alone) into H293T cells and media was collected after 48 hours. Virus was ultra-centrifuged and resuspended in PBS then titered before infecting human fetal neurospheres.
Neurospheres were cytospun onto slides and fixed in ice-cold methanol for 5 minutes. Slides were rinsed 3 times in phosphate-buffered saline (PBS) at room temperature, followed by blocking in 3% BSA in PBS for 1 hour at room temperature. […]

[2] = system: Zsgreen control neurospheres; assay: Colony counts of Zsgreen-infected control human fetal neurospheres after 1 week of treatment; format: cell-based; settings: 1 week treatment; FIG. 5E
Description: as §1, §2
Human neurospheres were dissociated into single cells and infected with either a lentiviral construct containing pHIV-Zsgreen+mutant APP or pHIV-Zsgreen alone and allowed to grow for a week. […] Colonies were counted after 7 days.

pSMAD 1/5/8 level after treatment [1]: substantially decreased
SMILES: c1ccc2c(-c3cnn4cc(-c5ccc(N6CCNCC6)cc5)cnc34)ccnc2c1 [LDN-193189]
impact on Zsgreen control neurosphere growth [2]: minimal impact
